This note sets out measurements from patent US9771406B2, “Peptidic dual GLP-1/glucagon receptor agonists derived from exendin-4” (priority 2014, dated 2017).

The target in one series is T1, human GLP-1 receptor (Homo sapiens, UniProt P43220).
T1 construct: expressed in transfected cells; host or cells: HEK-293
The series is described as follows: cAMP response of HEK-293 cells stably expressing human GLP-1 receptor (HTRF). The format is cell-based. The conditions noted are these: Table 6; cAMP formation; read-out: EC50 hGLP-1R. Here is the method: (§1) cAMP content of cells was determined using a kit from Cisbio Corp. (cat. no. 62AM4PEC) based on HTRF (Homogenous Time Resolved Fluorescence). For preparation, cells were split into T175 culture flasks and grown overnight to near confluency in medium (DMEM/10% FBS). Medium was then removed and cells washed with PBS lacking calcium and magnesium, followed by proteinase treatment with accutase (Sigma-Aldrich cat. no. A6964). Detached cells were washed and resuspended in assay buffer (1×HBSS; 20 mM HEPES, 0.1% BSA, 2 mM IBMX) and cellular density determined. They were then diluted to 400000 cells/ml and 25 μl-aliquots dispensed into the wells of 96-well plates. For measurement, 25 μl of test compound in assay buffer was added to the wells, followed by incubation for 30 minutes at room temperature.
(§2) Potencies of peptidic compounds at the GLP-1, glucagon and GIP receptors were determined by exposing cells expressing human glucagon receptor (hGCG R), human GIP (hGIP R) and human GLP-1 receptor (hGLP-1 R) to the listed compounds at increasing concentrations and measuring the formed cAMP as described in Methods.

Another series has as its target T2, human glucagon receptor (Homo sapiens, UniProt P47871).
T2 construct: expressed in transfected cells; host or cells: HEK-293
The experiment in a line: cAMP response of HEK-293 cells stably expressing human glucagon receptor (HTRF). The format is cell-based. To be noted: Table 6; cAMP formation; read-out: EC50 hGlucagon-R. Here is the method:
as §1, §2
Background: Time-resolved FRET reads energy transfer from a long-lived donor to a nearby acceptor.

Another series addresses T3, human GIP receptor (Homo sapiens, UniProt P48546).
T3 construct: expressed in transfected cells; host or cells: HEK-293
T3 sequence (P48546 22-466): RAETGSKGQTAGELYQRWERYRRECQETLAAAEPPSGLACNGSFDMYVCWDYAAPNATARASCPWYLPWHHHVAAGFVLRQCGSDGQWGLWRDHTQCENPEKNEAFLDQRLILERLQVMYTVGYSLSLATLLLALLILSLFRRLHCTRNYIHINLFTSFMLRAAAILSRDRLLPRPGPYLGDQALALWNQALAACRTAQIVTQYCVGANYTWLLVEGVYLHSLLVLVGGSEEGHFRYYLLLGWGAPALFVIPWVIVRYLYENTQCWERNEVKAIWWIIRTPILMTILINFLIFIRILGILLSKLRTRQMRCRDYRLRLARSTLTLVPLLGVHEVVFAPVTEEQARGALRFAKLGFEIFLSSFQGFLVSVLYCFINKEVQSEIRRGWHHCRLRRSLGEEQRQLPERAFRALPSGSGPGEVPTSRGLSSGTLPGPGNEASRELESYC
The series is described as follows: cAMP response of HEK-293 cells stably expressing human GIP receptor (HTRF). The format is cell-based. The conditions noted are these: Table 6; cAMP formation; read-out: EC50 hGIP-R. As to the method: as §1, §2

Series [1] in a line: Solubility testing of exendin-4 derivatives (HPLC-UV of supernatant). The format is physicochemical. Here is the method: Prior to the testing of solubility and stability of a peptide batch, its purity (HPLC-UV) was determined. […] Therefore, solutions from solid samples were prepared in different buffer systems with a concentration of 10 mg/mL compound based on the previously determined % purity. HPLC-UV was performed after 2 h of gentle agitation from the supernatant, which was obtained by 20 min of centrifugation at 4500 rpm. […] This analysis also served as starting point (t0) for the stability testing.

The nature of series [2]: Stability testing in solution, 7 days at 40° C. (% remaining peptide, HPLC-UV). The format is physicochemical. The conditions noted are these: buffer, 168 h. Here is the method: After that time course, the sample was centrifuged for 20 min at 4500 rpm and 0.2 μL of the supernatant were analysed with HPLC-UV.
For determination of the amount of the remaining peptide, the peak areas of the target compound at t0 and t7 were compared, resulting in “% remaining peptide”, following the equation % remaining peptide=[(peak area peptide t7)×100]/peak area peptide t0.
The stability is expressed as “% remaining peptide”.

Series [3] is described as follows: Pharmacokinetic testing in mice (plasma LC/MS). To be noted: mouse, in vivo, sc, 1 mg/kg. As to the method: Mice are dosed 1 mg/kg subcutaneously (s.c.). The mice are sacrificed and blood samples are collected after 0.25, 0.5, 1, 2, 4, 8, 16 and 24 hours post application. Plasma samples are analyzed after protein precipitation via liquid chromatography mass spectrometry (LC/MS). PK parameters and half-life were calculated using WinonLin Version 5.2.1 (non-compartment model).
Pharmacokinetic profiles were determined as described in Methods.

T2 sequence (P47871 26-477): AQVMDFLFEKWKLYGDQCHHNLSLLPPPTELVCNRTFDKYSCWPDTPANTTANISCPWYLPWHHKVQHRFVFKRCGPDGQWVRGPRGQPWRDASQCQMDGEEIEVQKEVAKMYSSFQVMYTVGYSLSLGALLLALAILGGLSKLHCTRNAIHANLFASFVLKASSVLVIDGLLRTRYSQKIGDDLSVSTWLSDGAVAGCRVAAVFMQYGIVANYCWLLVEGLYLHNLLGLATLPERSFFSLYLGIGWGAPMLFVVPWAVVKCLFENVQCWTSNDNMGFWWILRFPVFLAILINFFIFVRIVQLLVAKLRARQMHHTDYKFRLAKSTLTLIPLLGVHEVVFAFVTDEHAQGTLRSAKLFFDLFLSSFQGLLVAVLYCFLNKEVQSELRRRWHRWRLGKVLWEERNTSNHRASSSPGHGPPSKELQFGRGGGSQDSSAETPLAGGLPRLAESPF
T1 sequence (P43220 24-463): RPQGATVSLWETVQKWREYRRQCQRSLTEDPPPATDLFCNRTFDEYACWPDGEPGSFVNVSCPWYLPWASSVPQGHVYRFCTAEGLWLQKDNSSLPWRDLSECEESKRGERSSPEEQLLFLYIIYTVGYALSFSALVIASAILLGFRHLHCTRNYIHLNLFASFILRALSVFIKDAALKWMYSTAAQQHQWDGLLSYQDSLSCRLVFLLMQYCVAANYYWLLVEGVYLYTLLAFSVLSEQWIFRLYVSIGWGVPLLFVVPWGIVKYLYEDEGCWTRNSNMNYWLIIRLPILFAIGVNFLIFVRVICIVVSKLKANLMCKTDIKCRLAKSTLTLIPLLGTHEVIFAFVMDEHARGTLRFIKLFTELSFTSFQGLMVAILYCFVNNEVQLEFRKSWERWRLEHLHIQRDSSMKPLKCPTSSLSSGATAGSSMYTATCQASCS

The term EC50 denotes the concentration needed to bring the measured effect to its halfway point. What is called solubility is the dissolved amount per volume that the medium holds. With `CCCCCCCCCCCCCCCC(=O)N[C@@H](CCC(=O)NCCCC[C@H](NC(=O)[C@H](CCC(N)=O)NC(=O)[C@H](CCCCN)NC(=O)[C@H](CO)NC(=O)[C@H](CC(C)C)NC(=O)[C@H](CC(=O)O)NC(=O)[C@H](CO)NC(=O)[C@@H](NC(=O)[C@H](Cc1ccccc1)NC(=O)[C@@H](NC(=O)CNC(=O)[C@H](Cc1c[nH]cn1)NC(=O)C(C)(C)NC(=O)[C@@H](N)Cc1c[nH]cn1)[C@@H](C)O)[C@@H](C)O)C(=O)N[C@@H](CCC(=O)O)C(=O)N[C@@H](CCC(=O)O)C(=O)N[C@@H](CCC(=O)O)C(=O)N[C@@H](C)C(=O)N[C@H](C(=O)N[C@@H](CCCNC(=N)N)C(=O)N[C@@H](CC(C)C)C(=O)N[C@@H](Cc1ccccc1)C(=O)N[C@H](C(=O)N[C@@H](CCC(=O)O)C(=O)N[C@@H](Cc1c[nH]c2ccccc12)C(=O)N[C@@H](CC(C)C)C(=O)N[C@@H](CCCCN)C(=O)N[C@@H](C)C(=O)NCC(=O)NCC(=O)N1CCC[C@H]1C(=O)N[C@@H](CO)C(=O)N[C@@H](CO)C(=O)NCC(=O)N[C@@H](C)C(=O)N1CCC[C@H]1C(=O)N1CCC[C@H]1C(=O)N1CCC[C@H]1C(=O)N[C@@H](CO)C(N)=O)[C@@H](C)CC)C(C)C)C(=O)O` [compound 12], the concentration for a half-maximal effect (EC50) amounted to 3.3 pM on human GLP-1 receptor, 12.8 pM on human glucagon receptor and 8.8 pM on human GIP receptor. In addition, the solubility at 2 h in series [1] (pH 4.5) and in series [1] (pH 7.4) was over 5000 µg/mL throughout. In addition, the “Stability (pH 4.5), % remaining peptide” value in series [2] is on record as 96.7%. Besides, in series [2], the “Stability (pH 7.4), % remaining peptide” value was 92.0%.
As to `CCCCCCCCCCCCCCCC(=O)N[C@@H](CCC(=O)NCCCC[C@H](NC(=O)[C@H](CCC(N)=O)NC(=O)[C@H](CCCCN)NC(=O)[C@H](CO)NC(=O)[C@H](CC(C)C)NC(=O)[C@H](CC(=O)O)NC(=O)[C@H](CO)NC(=O)[C@@H](NC(=O)[C@H](Cc1ccccc1)NC(=O)[C@@H](NC(=O)CNC(=O)[C@H](Cc1c[nH]cn1)NC(=O)[C@@H](CO)NC(=O)[C@@H](N)Cc1c[nH]cn1)[C@@H](C)O)[C@@H](C)O)C(=O)N[C@@H](CCC(=O)O)C(=O)N[C@@H](CCC(=O)O)C(=O)N[C@@H](CCC(=O)O)C(=O)N[C@@H](C)C(=O)N[C@H](C(=O)N[C@@H](CCCNC(=N)N)C(=O)N[C@@H](CC(C)C)C(=O)N[C@@H](Cc1ccccc1)C(=O)N[C@H](C(=O)N[C@@H](CCC(=O)O)C(=O)N[C@@H](Cc1c[nH]c2ccccc12)C(=O)N[C@@H](CC(C)C)C(=O)N[C@@H](CCCCN)C(=O)N[C@@H](C)C(=O)NCC(=O)NCC(=O)N1CCC[C@H]1C(=O)N[C@@H](CO)C(=O)N[C@@H](CO)C(=O)NCC(=O)N[C@@H](C)C(=O)N1CCC[C@H]1C(=O)N1CCC[C@H]1C(=O)N1CCC[C@H]1C(=O)N[C@@H](CO)C(N)=O)[C@@H](C)CC)C(C)C)C(=O)O` [compound 14], the EC50 at human GLP-1 receptor amounted to 4.1 pM; at human glucagon receptor it was 58.4 pM; at human GIP receptor, 437 pM.
As a reminder, the Cmax is the peak of the concentration-time curve. Broadly, the half-life is the time needed for the level to fall by half in the phase considered. The low end stands for rapid decline, the high end for slow decline. For the compound `CCCCCCCCCCCCCCCC(=O)N[C@@H](CCC(=O)N[C@@H](CCC(=O)NCCCC[C@H](NC(=O)[C@H](CCC(N)=O)NC(=O)[C@H](CCCCN)NC(=O)[C@H](CO)NC(=O)[C@H](CC(C)C)NC(=O)[C@H](CC(=O)O)NC(=O)[C@H](CO)NC(=O)[C@@H](NC(=O)[C@H](Cc1ccccc1)NC(=O)[C@@H](NC(=O)CNC(=O)[C@H](Cc1c[nH]cn1)NC(=O)C(C)(C)NC(=O)[C@@H](N)Cc1c[nH]cn1)[C@@H](C)O)[C@@H](C)O)C(=O)N[C@@H](CCC(=O)O)C(=O)N[C@@H](CCC(=O)O)C(=O)N[C@@H](CCC(=O)O)C(=O)N[C@@H](C)C(=O)N[C@H](C(=O)N[C@@H](CCCNC(=N)N)C(=O)N[C@@H](CC(C)C)C(=O)N[C@@H](Cc1ccccc1)C(=O)N[C@H](C(=O)N[C@@H](CCC(=O)O)C(=O)N[C@@H](Cc1c[nH]c2ccccc12)C(=O)N[C@@H](CC(C)C)C(=O)N[C@@H](CCCCN)C(=O)N[C@@H](C)C(=O)NCC(=O)NCC(=O)N1CCC[C@H]1C(=O)N[C@@H](CO)C(=O)N[C@@H](CO)C(=O)NCC(=O)N[C@@H](C)C(=O)N1CCC[C@H]1C(=O)N1CCC[C@H]1C(=O)N1CCC[C@H]1C(=O)N[C@@H](CO)C(N)=O)[C@@H](C)CC)C(C)C)C(=O)O)C(=O)O` [compound 11], the results for the EC50 at human glucagon receptor and on human GIP receptor were 8.9 pM and 7.9 pM, respectively. For the same compound, the solubility at 2 h in series [1] (pH 4.5) and in series [1] (pH 7.4) was over 5000 µg/mL throughout. For the same compound, in series [2], the “Stability (pH 4.5), % remaining peptide” value is 97.5%. For the same compound, in series [2], the “Stability (pH 7.4), % remaining peptide” value came to 95.8%. The compound further showed a Cmax in series [3] of 3510 ng/mL. The compound further showed a half-life in series [3] of 3.3 h.
